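Values below derive from 48-hour exposures of cells grown in 96-well plates, with endpoints linearly interpolated between the two concentrations bracketing the appropriate inhibition level. TGI: total growth inhibition.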
Key:
Assay in all cases: DTP human tumour cell line panel, 48 h
SW-620 colon = system: SW-620 colon
HOP-18 NSCLC = system: HOP-18 NSCLC
OVCAR-3 ovarian = system: OVCAR-3 ovarian
DMS 114 small cell lung = system: DMS 114 small cell lung
NCI-H226 lung = system: NCI-H226 lung
IGROV1 ovarian = system: IGROV1 ovarian
DMS 273 small cell lung = system: DMS 273 small cell lung
HOP-62 NSCLC = system: HOP-62 NSCLC
SR leukemia = system: SR leukemia
RPMI-8226 leukemia = system: RPMI-8226 leukemia
XF 498 CNS = system: XF 498 CNS
SK-OV-3 ovarian = system: SK-OV-3 ovarian
A549 NSCLC = system: A549 NSCLC
SF-268 CNS = system: SF-268 CNS
SNB-78 CNS = system: SNB-78 CNS
HCC-2998 colon = system: HCC-2998 colon
UACC-62 melanoma = system: UACC-62 melanoma
DLD-1 colon = system: DLD-1 colon
SK-MEL-28 melanoma = system: SK-MEL-28 melanoma
M14 melanoma = system: M14 melanoma
UACC-257 melanoma = system: UACC-257 melanoma
CCRF-CEM leukemia = system: CCRF-CEM leukemia
LXFL 529 NSCLC = system: LXFL 529 NSCLC
HL-60(TB) leukemia = system: HL-60(TB) leukemia
COLO 205 colon = system: COLO 205 colon
M19-MEL melanoma = system: M19-MEL melanoma
MALME-3M melanoma = system: MALME-3M melanoma
SF-295 CNS = system: SF-295 CNS
KM12 colon = system: KM12 colon
A498 renal = system: A498 renal
KM20L2 colon = system: KM20L2 colon
786-0 renal = system: 786-0 renal
SF-539 CNS = system: SF-539 CNS
NCI-H23 lung = system: NCI-H23 lung
SK-MEL-2 melanoma = system: SK-MEL-2 melanoma
HT29 colon = system: HT29 colon
SK-MEL-5 melanoma = system: SK-MEL-5 melanoma
UO-31 renal = system: UO-31 renal
U251 CNS = system: U251 CNS
SNB-75 CNS = system: SNB-75 CNS
ACHN renal = system: ACHN renal
OVCAR-4 ovarian = system: OVCAR-4 ovarian
EKVX NSCLC = system: EKVX NSCLC
TK-10 renal = system: TK-10 renal
LOX IMVI melanoma = system: LOX IMVI melanoma
OVCAR-8 ovarian = system: OVCAR-8 ovarian
OVCAR-5 ovarian = system: OVCAR-5 ovarian
HCT-15 colon = system: HCT-15 colon
SN12C renal = system: SN12C renal
NCI-H460 lung = system: NCI-H460 lung
MOLT-4 leukemia = system: MOLT-4 leukemia
HCT-116 colon = system: HCT-116 colon
NCI-H522 lung = system: NCI-H522 lung
RXF 393 renal = system: RXF 393 renal
SNB-19 CNS = system: SNB-19 CNS
K-562 leukemia = system: K-562 leukemia
CAKI-1 renal = system: CAKI-1 renal
RXF-631 renal = system: RXF-631 renal
HOP-92 NSCLC = system: HOP-92 NSCLC

Q: What does the source list for `Cc1c(Cl)ccc2c1NC(=O)C2(O)CC(=O)c1cccc2ccccc12` (stereo not drawn)?
A: TGI (SW-620 colon): > 100 µM; TGI (HOP-18 NSCLC): > 100 µM; TGI (OVCAR-3 ovarian): > 100 µM; TGI (DMS 114 small cell lung): 55.8 µM; TGI (NCI-H226 lung): > 100 µM; TGI (IGROV1 ovarian): > 100 µM; TGI (DMS 273 small cell lung): > 100 µM; TGI (HOP-62 NSCLC): > 100 µM; TGI (SR leukemia): 63.1 µM; TGI (RPMI-8226 leukemia): > 100 µM; TGI (XF 498 CNS): > 100 µM; TGI (SK-OV-3 ovarian): > 100 µM; TGI (A549 NSCLC): > 100 µM; TGI (SF-268 CNS): > 100 µM; TGI (SNB-78 CNS): > 100 µM; TGI (HCC-2998 colon): > 100 µM; TGI (UACC-62 melanoma): > 100 µM; TGI (DLD-1 colon): > 100 µM; TGI (SK-MEL-28 melanoma): > 100 µM; TGI (M14 melanoma): > 100 µM; TGI (UACC-257 melanoma): > 100 µM; TGI (CCRF-CEM leukemia): > 100 µM; TGI (LXFL 529 NSCLC): > 100 µM; TGI (HL-60(TB) leukemia): 42.3 µM; TGI (COLO 205 colon): > 100 µM; TGI (M19-MEL melanoma): 37.6 µM; TGI (MALME-3M melanoma): > 100 µM; TGI (SF-295 CNS): > 100 µM; TGI (KM12 colon): > 100 µM; TGI (A498 renal): > 100 µM; TGI (KM20L2 colon): > 100 µM; TGI (786-0 renal): > 100 µM; TGI (SF-539 CNS): > 100 µM; TGI (NCI-H23 lung): > 100 µM; TGI (SK-MEL-2 melanoma): > 100 µM; TGI (HT29 colon): > 100 µM; TGI (SK-MEL-5 melanoma): > 100 µM; TGI (UO-31 renal): > 100 µM; TGI (U251 CNS): > 100 µM; TGI (SNB-75 CNS): > 100 µM; TGI (ACHN renal): > 100 µM; TGI (OVCAR-4 ovarian): 71.3 µM; TGI (EKVX NSCLC): > 100 µM; TGI (TK-10 renal): > 100 µM; TGI (LOX IMVI melanoma): > 100 µM; TGI (OVCAR-8 ovarian): > 100 µM; TGI (OVCAR-5 ovarian): > 100 µM; TGI (HCT-15 colon): > 100 µM; TGI (SN12C renal): > 100 µM; TGI (NCI-H460 lung): > 100 µM; TGI (MOLT-4 leukemia): > 100 µM; TGI (HCT-116 colon): > 100 µM; TGI (NCI-H522 lung): > 100 µM; TGI (RXF 393 renal): > 100 µM; TGI (SNB-19 CNS): > 100 µM; TGI (K-562 leukemia): > 100 µM; TGI (CAKI-1 renal): > 100 µM

Q: Which TGI (OVCAR-3 ovarian) does the source give for `Cc1cc(C)nc(NS(=O)(=O)c2ccc(Nc3c4ccccc4nc4c(C(=O)N5CCN(CCO)CC5)ccc(Cl)c34)cc2)n1` here?
A: > 100 µM

Q: What about the TGI (DMS 114 small cell lung) of the same compound?
A: > 100 µM

Q: What about the TGI (NCI-H226 lung) of the same compound?
A: > 100 µM

Q: What about the TGI (IGROV1 ovarian) of the same compound?
A: > 100 µM

Q: And the TGI (DMS 273 small cell lung)?
A: > 100 µM

Q: What about the TGI (HOP-62 NSCLC) of the same compound?
A: > 100 µM

Q: And the TGI (RPMI-8226 leukemia)?
A: > 100 µM

Q: And the TGI (SK-OV-3 ovarian)?
A: > 100 µM

Q: And the TGI (A549 NSCLC)?
A: > 100 µM

Q: What about the TGI (SF-268 CNS) of the same compound?
A: > 100 µM

Q: And the TGI (SNB-78 CNS)?
A: > 100 µM

Q: What about the TGI (HCC-2998 colon) of the same compound?
A: > 100 µM

Q: And the TGI (UACC-62 melanoma)?
A: > 100 µM

Q: And the TGI (RXF-631 renal)?
A: > 100 µM

Q: And the TGI (HOP-92 NSCLC)?
A: > 100 µM

Q: What about the TGI (SK-MEL-28 melanoma) of the same compound?
A: > 100 µM

Q: What about the TGI (M14 melanoma) of the same compound?
A: > 100 µM

Q: And the TGI (UACC-257 melanoma)?
A: > 100 µM

Q: And the TGI (CCRF-CEM leukemia)?
A: > 100 µM

Q: And the TGI (HL-60(TB) leukemia)?
A: > 100 µM

Q: And the TGI (COLO 205 colon)?
A: > 100 µM

Q: What about the TGI (M19-MEL melanoma) of the same compound?
A: > 100 µM

Q: What about the TGI (MALME-3M melanoma) of the same compound?
A: > 100 µM

Q: And the TGI (SF-295 CNS)?
A: > 100 µM

Q: What about the TGI (KM12 colon) of the same compound?
A: > 100 µM

Q: And the TGI (A498 renal)?
A: > 100 µM

Q: What about the TGI (KM20L2 colon) of the same compound?
A: > 100 µM

Q: And the TGI (786-0 renal)?
A: > 100 µM

Q: What about the TGI (SF-539 CNS) of the same compound?
A: > 100 µM

Q: What about the TGI (NCI-H23 lung) of the same compound?
A: > 100 µM

Q: And the TGI (SK-MEL-2 melanoma)?
A: > 100 µM

Q: What about the TGI (HT29 colon) of the same compound?
A: > 100 µM

Q: What about the TGI (SK-MEL-5 melanoma) of the same compound?
A: > 100 µM

Q: And the TGI (UO-31 renal)?
A: > 100 µM

Q: And the TGI (U251 CNS)?
A: > 100 µM

Q: What about the TGI (SNB-75 CNS) of the same compound?
A: > 100 µM

Q: And the TGI (OVCAR-4 ovarian)?
A: > 100 µM

Q: And the TGI (TK-10 renal)?
A: > 100 µM

Q: And the TGI (OVCAR-8 ovarian)?
A: > 100 µM

Q: What about the TGI (OVCAR-5 ovarian) of the same compound?
A: > 100 µM

Q: What about the TGI (HCT-15 colon) of the same compound?
A: > 100 µM

Q: What about the TGI (SN12C renal) of the same compound?
A: > 100 µM

Q: What about the TGI (NCI-H460 lung) of the same compound?
A: > 100 µM

Q: What about the TGI (MOLT-4 leukemia) of the same compound?
A: > 100 µM

Q: What about the TGI (HCT-116 colon) of the same compound?
A: > 100 µM

Q: What about the TGI (RXF 393 renal) of the same compound?
A: > 100 µM

Q: And the TGI (SNB-19 CNS)?
A: > 100 µM

Q: And the TGI (K-562 leukemia)?
A: > 100 µM

Q: And the TGI (CAKI-1 renal)?
A: > 100 µM

Q: What does the source list for `CC(=O)OC(OC(C)=O)c1ncccc1C(=O)OC(C)C`?
A: TGI (SW-620 colon): > 100 µM; TGI (HOP-18 NSCLC): > 100 µM; TGI (OVCAR-3 ovarian): > 100 µM; TGI (DMS 114 small cell lung): > 100 µM; TGI (NCI-H226 lung): > 100 µM; TGI (IGROV1 ovarian): > 100 µM; TGI (DMS 273 small cell lung): > 100 µM; TGI (HOP-62 NSCLC): > 100 µM; TGI (SR leukemia): > 100 µM; TGI (XF 498 CNS): > 100 µM; TGI (SK-OV-3 ovarian): > 100 µM; TGI (A549 NSCLC): > 100 µM; TGI (SF-268 CNS): > 100 µM; TGI (SNB-78 CNS): > 100 µM; TGI (HCC-2998 colon): > 100 µM; TGI (UACC-62 melanoma): > 100 µM; TGI (HOP-92 NSCLC): > 100 µM; TGI (DLD-1 colon): > 100 µM; TGI (SK-MEL-28 melanoma): > 100 µM; TGI (M14 melanoma): > 100 µM; TGI (UACC-257 melanoma): > 100 µM; TGI (CCRF-CEM leukemia): 49.1 µM; TGI (LXFL 529 NSCLC): > 100 µM; TGI (HL-60(TB) leukemia): 28.9 µM; TGI (COLO 205 colon): > 100 µM; TGI (M19-MEL melanoma): > 100 µM; TGI (MALME-3M melanoma): > 100 µM; TGI (SF-295 CNS): > 100 µM; TGI (KM12 colon): > 100 µM; TGI (A498 renal): > 100 µM; TGI (KM20L2 colon): > 100 µM; TGI (786-0 renal): > 100 µM; TGI (SF-539 CNS): > 100 µM; TGI (NCI-H23 lung): > 100 µM; TGI (SK-MEL-2 melanoma): > 100 µM; TGI (HT29 colon): > 100 µM; TGI (SK-MEL-5 melanoma): > 100 µM; TGI (UO-31 renal): > 100 µM; TGI (U251 CNS): > 100 µM; TGI (SNB-75 CNS): > 100 µM; TGI (ACHN renal): > 100 µM; TGI (OVCAR-4 ovarian): > 100 µM; TGI (EKVX NSCLC): > 100 µM; TGI (TK-10 renal): > 100 µM; TGI (LOX IMVI melanoma): > 100 µM; TGI (OVCAR-8 ovarian): > 100 µM; TGI (OVCAR-5 ovarian): > 100 µM; TGI (HCT-15 colon): > 100 µM; TGI (SN12C renal): > 100 µM; TGI (NCI-H460 lung): > 100 µM; TGI (MOLT-4 leukemia): > 100 µM; TGI (HCT-116 colon): > 100 µM; TGI (NCI-H522 lung): > 100 µM; TGI (RXF 393 renal): > 100 µM; TGI (SNB-19 CNS): > 100 µM; TGI (K-562 leukemia): > 100 µM; TGI (CAKI-1 renal): > 100 µM
